Assay results as given in patent publication US20090028925A1, “Novel Phosphinic Acid-Containing Thyromimetics” (priority 2005, published 2009).

Assays:
plasma cholesterol = assay: Cholesterol lowering in hypercholesterolemic rats; type: in vivo
[1] = Subacute study in cholesterol-fed rats, IP: heart weight and heart mGPDH activity
Method: The cholesterol-fed rat is an animal model of hypercholesterolemia generated by feeding the animals a diet with high cholesterol content.
Serum cholesterol values were assessed and the animals randomized into groups for treatment.

liver triglycerides [2] = assay: Hepatic triglyceride content and steatosis in ZDF rats, oral; type: in vivo; settings: orally 28 days
Method: (§1) Normal rats were chronically infused with Compound 7 for 7 days. Liver triglycerides were analyzed following lipid extraction by the Bligh Dyer method (Bligh E G and Dyer W J, A rapid method of total lipid extraction and purification. Can J Med. Sci. 1959 (August); 37(8):911-7, incorporated herein by reference). Total triglycerides were analyzed in the liver extracts by an enzymatic assay (Thermo Electron Corporation). Total lipid was normalized to initial liver weight and triglyceride content was normalized to liver weight. […] There was a 4% reduction in liver triglycerides for this group and the results were not statistically significant.
In other experiments, Compound 7 was orally administered to ZDF rats for 28 days. Liver triglycerides were analyzed as described above. Total liver triglycerides were reduced in the treated animals 42% in the 2.5 mg/kg/d group. […] The hepatic steatosis is a well known and described phenomenon for the ZDF rat, and therefore not attributable to vehicle treatment.

liver triglycerides [3] = assay: Hepatic triglyceride content in normal rats, chronic infusion; type: in vivo; settings: normal rats chronically infused for 7 days
Method: as §1

[4] = molecular target: T1, human thyroid hormone receptors TRα1 (Homo sapiens, UniProt P10827); assay: Receptor binding to TRα1 (gel filtration and scintillation proximity assay, labeled T3); settings: SPA data; read-out: Ki TRα
T1 construct: made in house; host or cells: Sf9 insect cells (baculovirus)
T1 sequence (P10827 1-410 isoform P10827-2): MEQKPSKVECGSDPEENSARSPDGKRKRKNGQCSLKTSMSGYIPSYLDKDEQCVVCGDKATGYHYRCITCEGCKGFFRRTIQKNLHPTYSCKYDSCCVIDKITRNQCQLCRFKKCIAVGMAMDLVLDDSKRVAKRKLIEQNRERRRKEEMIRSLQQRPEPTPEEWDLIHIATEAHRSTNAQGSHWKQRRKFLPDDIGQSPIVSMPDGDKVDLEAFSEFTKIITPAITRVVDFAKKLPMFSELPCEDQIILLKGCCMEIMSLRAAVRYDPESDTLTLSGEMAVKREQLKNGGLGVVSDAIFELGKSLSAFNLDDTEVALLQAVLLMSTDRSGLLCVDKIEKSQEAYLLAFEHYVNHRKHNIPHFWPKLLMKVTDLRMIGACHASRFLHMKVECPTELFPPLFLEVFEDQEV
T1 sequence (P19793 1-462 partner): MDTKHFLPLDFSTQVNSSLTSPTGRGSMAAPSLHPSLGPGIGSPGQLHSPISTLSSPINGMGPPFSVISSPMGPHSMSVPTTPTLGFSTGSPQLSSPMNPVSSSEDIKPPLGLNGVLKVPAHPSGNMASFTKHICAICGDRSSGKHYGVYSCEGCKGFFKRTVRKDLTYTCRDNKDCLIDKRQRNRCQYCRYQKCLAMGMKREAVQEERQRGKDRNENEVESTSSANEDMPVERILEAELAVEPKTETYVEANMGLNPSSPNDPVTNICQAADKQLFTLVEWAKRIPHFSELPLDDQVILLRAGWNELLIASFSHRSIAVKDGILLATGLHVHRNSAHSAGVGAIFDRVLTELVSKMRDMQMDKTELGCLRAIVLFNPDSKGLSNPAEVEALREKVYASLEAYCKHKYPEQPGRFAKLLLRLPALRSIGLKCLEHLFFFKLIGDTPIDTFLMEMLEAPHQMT

[5] = Continuous infusion study in rats on a cholesterol-containing diet; type: in vivo; settings: continuous infusion 1 mg/kg/day
Method: Screening for thyromimetic activity was performed in normal rats maintained on a cholesterol-containing diet. Compounds were administered by continuous infusion using an osmotic pump at 1 mg/kg/day.

[6] = Liver distribution following oral administration; type: in vivo; settings: liver levels of Compound 7, normal rats, oral 10 mg/kg
Method: Liver levels of Compound 7 were assessed in normal rats following oral administration of the HepDirect™ or other prodrugs. The levels were used to estimate potential efficacy. Liver levels were assessed by LC-MS using the 363.3/63.0 peak area to estimate levels of Compound 7 generated by orally administered prodrugs.

[7] = test system: thyroid stimulating hormone (TSH); assay: Circulating TSH in mice; type: in vivo; settings: 10 mg/kg/d for 77 days
Text: Another concern with synthetic thyromimetics is the suppression of the endogenous thyroid axis. Thyroid homeostasis is maintained by the action of thyroid releasing hormone (TRH) and thyroid stimulating hormone (TSH). […] Although this particular side effect has been noted, it has typically been treated with less concern than the cardiac safety issues. […] Therefore previous investigators have measured TSH levels when testing synthetic thyromimetics and have used a 30% decrease of TSH as the denominator in their therapeutic index calculations. […] Therefore, both compounds suppress TSH as doses lower than that required to decrease circulating cholesterol. […] However, 0.2 mg/kg/d of Compound 18 in 28 day treated ZDF rats, decreased TSH levels greater than 90%.

serum cholesterol = assay: Subacute study in cholesterol-fed rats, IP: serum cholesterol; type: in vivo; settings: IP once-a-day for seven days

## Cc1cc(OCP(=O)(O)O)cc(C)c1Cc1ccc(O)c(C(C)C)c1 [Compound 7, [3,5-dimethyl-4-(4′-hydroxy-3′-iso-propylbenzyl)phenoxy]methylphosphonic acid]
Plasma cholesterol; Rattus norvegicus, ip, delivered i.p (0.2 mg/kg/d), percentage change from pre-dose cholesterol, read-out: % Cholesterol Lowering
  change in vivo at 0.2 mg/kg/day: -41.5%
Plasma cholesterol; another experiment, hypercholesterolemic rats
  efficacy in lowering cholesterol: efficacious
[1]; IP once-a-day for seven days
  cardiac hypertrophy: No cardiac hypertrophy was observed
[1]; IP seven days
  therapeutic window between efficacy (cholesterol lowering) and toxicity (cardiac hypertrophy, heart GPDH): 10- to 100 fold
[1]; IP, 100 mg/kg
  heart GPDH activity: trend towards increased heart GPDH activity
[1]; IP, any dose
  adverse cardiac effects: No adverse cardiac effects were observed
Liver triglycerides [2]
  microvesicular steatosis, histologic analysis of liver sections: dose dependent reduction in the microvesicular steatosis
Liver triglycerides [3]
  reduction in liver triglycerides: 64%
[4]
  Ki: 58 nM
[5]; day 7 and day 14
  cholesterol lowering effects: demonstrated cholesterol lowering effects
[5]; day 7 or day 14
  cardiovascular parameters (heart rate, LV dP/dt, systolic and diastolic blood pressure): no changes in any of the cardiovascular parameters
[6]
  Liver Levels (ug/g) (10 mg/kg@1.5 h): Not Detected
[7]
  decrease in TSH: no decrease in TSH was observed
Serum cholesterol
  doses that significantly decreased serum cholesterol: 1 to 100 mg/kg/day
